Test results published in patent US20230233736A1, “ANTIMICROBIAL FORMULATIONS COMPRISING SILICONE” (AMICOAT AS, priority 2020, published 2023).

How the values were obtained:
Listeria monocytogenes = test: MIC microbroth dilution (CLSI); format: cell-based; settings: antibiotic-susceptible clinical isolate
Excerpt: (§1) Cation-adjusted Mueller-Hinton broth (Oxoid Ltd., Basingstoke, UK and Trek Diagnostic Systems Ltd., East Grinstead, UK) (supplemented with 5% laked horse blood for Streptococcus spp., Corynebacterium jeikeium and Listeria monocytogenes) was used for aerobic bacteria, with an initial inoculum of approximately 10^5 colony-forming units (CFU)/m L.

[1] = system: Staphylococcus saprophyticus; test: MIC microbroth dilution (CLSI); format: cell-based; settings: antibiotic susceptible clinical isolate
Excerpt: as §1

Acinetobacter baumanii = test: MIC microbroth dilution (CLSI); format: cell-based; parameters: unit not given beside the values; settings: antibiotic-susceptible clinical isolate
Excerpt: as §1

[2] = system: Staphylococcus aureus FDA486; test: Murine skin infection model, topical treatment; format: in vivo, mice; settings: FIG. 1; cream or gel containing 2% (w/w), three treatments at three hourly intervals, compared to placebo
Description: (§2) The skin of mice was infected with Staphylococcus aureus or Streptococcus pyogenes and subsequently given a total of three treatments at three hourly intervals. Three hours after the last treatment, skin biopsies were collected and the number of colony forming units (CFUs) present in the skin sample was determined. Results are shown in FIGS. 1 and 2, expressed as the number of colony forming units per mouse.
In experiment 1 (FIG. 1), compound 2 was applied to the murine skin as part of either a cream or a gel containing 2% (w/w) of compound 2. The same cream or gel without compound 2 was used as a negative control (placebo).
as §2, with “3, 4” for “1”, “5” for “2,”
In experiment 1 (FIG. 3), compound 7 was applied to the murine skin as part of either a cream or a gel containing 2% (w/w) of compound 7. The same cream or gel without compound 7 was used as a negative control (placebo). Bactroban 2% cream was used as a positive control.
In experiment 3 (FIG. 5), compound 8 was applied in a 2% cream formulation on a Staphylococcus aureus FDA 486 infection in the murine skin infection model. A placebo cream and two known antibacterials, “Fucidin (fucidic acid) ointment 2%” and “Bactroban (mupericin) cream 2%” were used as controls.

[3] = system: Staphylococcus hominis 58-69; test: CFU on silicone prosthetic liner patches; format: cell-based; settings: washed with water
Description: (§3) Bacterial Strains: • Staphylococcus epidermidis RP62A • Staphylococcus hominis 58-69
(§4) Overnight colonies of S. epidermidis or S. hominis were diluted to 0.5 McFarland (1×10^8 CFU/ml) in 0.85% NaCl. The bacterial solution was further diluted in Tryptic Soy Broth media (to 1×10^5 CFU/ml) and drops of 100 μl was applied to the surfaces of the silicone patches. Silicone patches were placed on glass microscope slides, and the glass slides were placed in a moist incubation chamber and incubated for 24 hours at 37° C.
(§5) For determining CFU, the samples were vortexed in 1 ml 0.85% NaCl and serial dilutions (10^−1 to 10^−6) were made. 100 μl aliquots of the serial dilutions were streaked on blood agar plates, and further incubated overnight prior to CFU counting.
(§6) The level of bacterial inhibition was examined by number of CFU and growth zone inhibition. All materials tested were washed with water after completion of the swell and dry procedure to ensure that the activity of the materials was due to internally absorbed AMC-109 only.

[4] = system: Staphylococcus epidermidis RP62A; test: CFU on silicone prosthetic liner patches; format: cell-based; settings: washed with water
Description: as §3, §4, §5, §6

CC(C)(C)c1cc(C(C)(C)C)c2[nH]c(C(C)(C)C)c(CC(NC(=O)C(N)CCCNC(=N)N)C(=O)NC(CCCNC(=N)N)C(=O)NCCc3ccccc3)c2c1 (centres unmarked) [Compound 2]
MIC (Listeria monocytogenes): 16
MIC [1]: 1
MIC (Acinetobacter baumanii): 16
number of colony forming units (CFU) in skin biopsy [2]: number of CFUs was reduced
CFU ([3]; 5 minutes swell time): 0 CFU/ml
CFU ([3]; 15 minutes swell time): 0 CFU/ml
CFU ([4]; 5 minutes swell time): 0 CFU/ml
CFU ([4]; 15 minutes swell time): 0 CFU/ml
